Patent publication US7601739B2, “Compounds having antiestrogenic and tissue selective estrogenic properties, and compounds with anti-androgenic properties for treatment of prostate cancer and androgen receptor dependent diseases” (Virgina Commonwealth University, priority 2006, dated 2009)

Legend:
hER = assay: Fluorescence-based competitive binding assay for hER (displacement of fluormone ES2); design: species or system human; conditions: RBA = IC50 of tamoxifen/IC50 of test molecule; tamoxifen set at 1
Method: The estrogen receptor competitor assay kits (Panvera, Madison, Wis.) were used to determine the ability of test molecules to displace the fluormone, ES2, from hER -ES2 or hER -ES2 complex. Serial dilutions of each test molecule were prepared in methanol or DMSO. The recombinant hER or hER (7 nM) was preincubated with ES2 (1 nM) in screening buffer. After the preincubation, the test molecules and ER-ES2 complex solution were added into the 96-well microplate to produce a final volume of 100 μl per well. The reaction was incubated at room temperature for 1 hr and the polarization values were measured by using fluorescence microplate reader, Polarion (Tecan, Research Triangle Park, N.C.) with excitation wavelength 495 nm and emission wavelength 535 nm. The polarization value versus test molecule concentration curves was analyzed by graphfit software to generate IC50 values.
In this assay, recombinant hER and the commercial synthetic estrogen, ES2 containing fluorescence polarization property, are used. This assay is a homogenous assay. When the assay solution only contains ES2, the solution exerts weak fluorescence polarization property due to the quick rotation of free ES2 molecule. […] Addition of the antiestrogen to the ES2/hER displaces ES2 from hER and results in the whole solution exerting less fluorescence polarization property than the solution without antiestrogen.

hERα = target: T1, hERα (Homo sapiens, UniProt P03372); assay: Transient transfection reporter assay for hERα in MCF-7 cells; assay type: cell-based; design: Relative Estrogenic Activity: dose or concentration left out as unconfirmed; conditions: for Relative Estrogenic Activity: MCF-7 cells transfected with hERα, DMSO set as 1; for estrogenic effect: compared with DMSO and tamoxifen; for Relative Antiestrogenic Activity at 2.5 μM: with 1 nM estradiol, 1 nM E2 used as reference (1)
T1 construct: mammalian expression plasmid containing full length human ER cDNA, pCMV-hER; expressed in transfected cells; host or cells: MCF-7 human breast cancer cells
T1 sequence (P03372 1-595): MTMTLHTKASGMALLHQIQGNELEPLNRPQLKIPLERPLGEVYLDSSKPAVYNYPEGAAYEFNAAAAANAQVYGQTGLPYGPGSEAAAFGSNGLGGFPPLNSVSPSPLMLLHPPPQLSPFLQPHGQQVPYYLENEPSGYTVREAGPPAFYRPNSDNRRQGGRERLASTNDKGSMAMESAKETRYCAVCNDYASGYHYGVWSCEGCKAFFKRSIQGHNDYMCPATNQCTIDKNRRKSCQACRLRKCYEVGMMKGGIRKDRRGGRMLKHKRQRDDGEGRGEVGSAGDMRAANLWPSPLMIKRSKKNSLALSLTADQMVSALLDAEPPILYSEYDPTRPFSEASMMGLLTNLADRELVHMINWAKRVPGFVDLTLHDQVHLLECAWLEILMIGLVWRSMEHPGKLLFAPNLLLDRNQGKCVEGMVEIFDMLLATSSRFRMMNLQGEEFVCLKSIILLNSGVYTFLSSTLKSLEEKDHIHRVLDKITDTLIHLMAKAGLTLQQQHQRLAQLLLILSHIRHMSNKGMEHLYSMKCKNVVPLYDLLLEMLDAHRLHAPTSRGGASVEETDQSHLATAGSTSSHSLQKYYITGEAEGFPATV
Method: For the transient transfection reporter assays, the cells were plated in triplicate in 12-well plates at a density of 300000 cells/well in the phenol red-free DMEM (GIBCO/BRL, Grand Island, N.Y.) supplemented with 10% charcoal-stripped fetal bovine serum (Hyclone, Logan, Utah), Penicillin (100 unit/ml)/Streptomycin ([…]), 2 mML-glutamine and 1 mM sodium Pyruvate. 24 hrs later, the cells were transfected with three plasmids by using Superfect transfection kit (Qiagen, Valencia, Calif.). For the detection of hER activity, cells were transfected with 2 g hER expression plasmid (pCMV-ER ), 6 g luciferase reporter plasmid containing estrogen receptor response element (PGL-TATA-Luc), and 600 ng normalization control, β-galactosidase reporter plasmid (pCMV ). For the detection of hER activity, cells were transfected with 3 ug hER expression plasmid (pcDNA3.1-hER), 6 g luciferase reporter plasmid containing estrogen receptor response element (PGL-TATA-Luc), and 600 ng pCMV. For determining the influence of ER's major coactivator in breast, AIB 1, 2 g pcDNA3.1-AIB1 was added into the transfection plasmid solution mentioned previously.
The transfected cells were rinsed with PBS and treated with various concentrations of test molecules and one […] (vehicle, DMSO or methanol) in phenol red-free culture medium. After incubation for further 24 hrs, the cells were washed with PBS and lysed with lysis buffer (Pierce, Rockford, Ill.). The lysate was used to determine the luciferase activity for ER's activity and the β-galactosidase activity for the normalization of transfection efficiency.
For the luciferase activity assay, 20 μl of lysate and 100 μl luciferase assay buffer (Promega, Madison, Wis.) were added into a well of 96-well plate. The luminescence was detected by using luminescence microplate reader, LumiCount (Packard, Boston, Mass.). For the β-galactosidase activity assay, […] β-galactosidase assay buffer (Clontech, Palo Alto, Calif.) were added into a well of 96-well plate. The β-galactosidase activity was measured as luminescence strength by using luminescence microplate reader, LumiCount (Packard, Boston, Mass.). The normalized reporter activity was calculated by the luciferase activity divided by that of β-galactosidase.
The transient transfection reporter assay was used to determine the estrogenic or antiestrogenic activity of tested compounds in employed human breast cancer cells, MCF-7 cells that are cotransfected with hERα expression and reporter plasmids. […] […] The estrogenic (antiestrogenic) activity was determined by dividing the luciferase activity by the β-galactosidase activity. To determine the influence of estrogen receptor's major coactivator in breast cancer, AIB1, for the compounds' estrogenic activity, the expression vector of AIB1 was additionally cotransfected with the plasmids mentioned above.

MCF-7 cells = assay: hERα positive breast cancer cell proliferation assay; assay type: cell-based, human; conditions: for activity at 5 µM: Homo sapiens, MCF7, 72 h, MCF-7 cells, DMSO = 1, read-out: Relative Cancer Cell Proliferation Effects at 5 μM
Method: (§1) MCF-7 or MDA-MB-231 cells were inoculated into 12-well culture plates at 10000 cells in 2 ml maintained medium per well. Cells were allowed to attach to the bottom for 24 hrs incubation, then the seeding medium was removed and replaced by the experimental medium (phenol red-free DMEM supplemented with 5% charcoal-stripped fetal bovine serum and Penicillin (100 unit/ml)/Streptomycin ([…])). After 24 hr incubation, the test molecules dissolved in DMSO were added in the wells. […] The culture was continued for 3 days and the medium and tested compounds were replaced every two days. The final cell numbers were estimated with CellTiter proliferation assay kit (Promega, Madison, Wis.) by measuring the absorbance at 570 nm, which is directly proportional to the number of living cells in the culture.
MCF-7 cell line was used to perform this assay and the description of this assay as mentioned above. […] DMSO was used as reference.

MDA-MB-231 cells = assay: hER negative breast cancer cell proliferation assay; assay type: cell-based, human; conditions: hER negative cell line
Method: as §1
In this assay, MDA-MB-231 breast cancer cell line, a hER negative cell line, was used. DMSO was used as reference.

Relative Binding Affinity (hER) | Relative Estrogenic Activity (hERα) | estrogenic effect (hERα; MCF-7 cells, hERα) | Relative Antiestrogenic Activity at 2.5 μM (hERα) | antiestrogenic / inhibition activity (hERα; against 1 nM estrogen) | Compound | antiestrogenic activity against various concentrations of estrogen (FIG. 4) (hERα; MCF-7 cells, hERα) | activity at 5 µM (MCF-7 cells) [%] | inhibition effects against MCF-7 cell proliferation (MCF-7 cells) | stimulation of growth of DMSO-treated MCF-7 cells (MCF-7 cells; 2 nM estrogen) [%] | inhibition of MCF-7 cell proliferation (MCF-7 cells; relative to DMSO) [%] | proliferation effects against MDA-MB-231 cells (FIG. 6, words) (MDA-MB-231 cells)
0.225 | 1.02 | do not exert any estrogenic effects | 1.17 |  | CCCCNC(=O)CCCCCCCCCCOCC1Cc2ccccc2CN1C(=O)c1ccccc1F (stereo not shown) [Compound 1] | can antagonize estrogen's action in a dose dependent manner | 106 |  |  |  | 
0.264 | 1.09 | do not exert any estrogenic effects | 0.93 |  | CCCCNC(=O)CCCCCCCCCCOCC1Cc2ccccc2CN1C(=O)c1ccc(F)cc1 (stereo not shown) [Compound 3] |  | 91 | slight inhibition effects |  |  | 
0.14 | 1.06 | do not exert any estrogenic effects | 1.64 |  | CCCCNC(=O)CCCCCCCCCCOCC1Cc2ccccc2CN1C(=O)c1ccc(OC)cc1 (stereo not shown) [Compound 5] |  | 98 |  |  |  | 
0.156 | 1.32 |  | 0.75 | moderate antiestrogenic effect | CCCCNC(=O)CCCCCCCCCCOCC1Cc2ccccc2CN1C(=O)c1cccc(C)c1 (stereo not shown) [Compound 8, 11-[2-(3-Methyl-benzoyl)-1,2,3,4tetrahydro-isoquinolin-3-ylmethoxy]-undecanoic acid butylanide] |  | 84 | slight inhibition effects |  |  | 
0.132 | 1.72 |  | 1.34 |  | CCCCNC(=O)CCCCCCCCCCOCC1Cc2ccccc2CN1C(=O)c1ccc(C)cc1 (stereo not shown) [Compound 9, 11-[2-(4-Methyl-benzoyl)-1,2,3,4-tetrahydro-isoquinolin-3-ylmethoxy]-undecanoic acid butylamide] |  | 101 |  |  |  | 
0.156 | 0.68 | do not exert any estrogenic effects | 0.83 |  | CCCCNC(=O)CCCCCCCCCCOCC1Cc2ccccc2CN1C(=O)c1cccc(Cl)c1 (stereo not shown) [Compound 10, 11-[2-(3-Chloro-benzoyl)-1,2,3,4tetrahydro-isoquinolin-3-ylmethoxy]-undecanoic acid butylamide] |  | 86 | slight inhibition effects |  |  | 
0.177 | 0.83 | do not exert any estrogenic effects | 1.11 |  | CCCCCCCCNC(=O)CCCCCCCCCCOCC1Cc2ccccc2CN1C(=O)c1cccc(F)c1 (stereo not shown) [Compound 11, 11-[2-(3-Fluoro-benzoyl)-1,2,3,4-tetrahydro-isoquinolin-3-ylmethoxy]-undecanoic acid octylamide] |  | 100 |  |  |  | 
0.267 | 1.68 |  | 1.01 |  | CCCCNC(=O)CCCCCCCCCCOCC1Cc2ccccc2CN1C(=O)Cc1cccc(F)c1 (stereo not shown) [Compound 12, 11-{2-[2-(3-Fluoro-phenyl)-acetyl]-1,2,3,4-tetrahydro-isoquinolin-3-ylmethoxy]-undecanoic acid butylamide] |  | 120 |  |  |  | 
 |  |  |  |  | C[C@]12CC[C@@H]3c4ccc(O)cc4CC[C@H]3[C@@H]1CC[C@@H]2O [Compound E2, estradiol, reference compound] |  |  |  | 150 |  | 
 |  |  |  |  | CC/C(=C(\c1ccccc1)c1ccc(OCCN(C)C)cc1)c1ccccc1 [Tamoxifen, reference compound] |  | 42 |  |  | 58 | moderate anti-proliferation effects
